Measured values reported in ChEMBL document CHEMBL3885861, “Open TG-GATES”.

Species on record: Rattus norvegicus
Test: Open TG-GATES - Regimen: Daily Repeat
Format: toxicity, organism-based, Sprague-Dawley
Set-up: regimen Daily Repeat, gender Male, age 6 weeks
Conditions: in vivo, po, 1000 mg/kg, route gavage, dose level High; for APTT / Bas / Eos / Fbg / Hb / Ht / Lym / MCH / MCHC / MCV / Mono / Neu / PT / Plat / RBC / Ret / WBC: tissue Blood; for KIDNEY_L / KIDNEY_R / KIDNEY_TOTAL: tissue Kidney; for LIVER: tissue Liver; for A/G / ALP / ALT / AST / BUN / CRE / Ca / Cl / DBIL / GLC / IP / LDH / Na / PL / RALB / TBIL / TC / TG / TP / gamma-GTP: tissue Plasma

## NC(N)=Nc1nc(CSCCC(N)=NS(N)(=O)=O)cs1 [FAMOTIDINE]
72 h, time 3 day
  TERMINAL_BW: 226 g
  APTT: 19.5 s
  Bas: 0%
  Eos: 1%
  Fbg: 226.2 mg/dL
  Hb: 13.2 g/dL
  Ht: 36.9%
  Lym: 79%
  MCH: 21.9 pg
  MCHC: 36%
  MCV: 60.8 fL
  Mono: 2.6%
  Neu: 14.4%
  PT: 11.9 s
  Plat: 126.7 x10_4/uL
  RBC: 607 x10_4/ul
  Ret: 4.4%
  WBC: 84.8 x10_2/uL
  KIDNEY_L: 1 g
  KIDNEY_R: 1 g
  KIDNEY_TOTAL: 2 g
  LIVER: 10.4 g
  A/G: 1.5
  ALP: 917.2 IU/L
  ALT: 32.8 IU/L
  AST: 60.4 IU/L
  BUN: 15.4 mg/dL
  CRE: 0.4 mg/dL
  Ca: 10.8 mg/dL
  Cl: 104.2 meq/L
  DBIL: 0.088 mg/dL
  GLC: 179.4 mg/dL
  IP: 7.7 mg/dL
  LDH: 185.8 IU/L
  Na: 141.2 meq/L
  PL: 137.8 mg/dL
  RALB: 3.3 g/dL
  TBIL: 0.1 mg/dL
  TC: 77.6 mg/dL
  TG: 79.6 mg/dL
  TP: 5.5 g/dL
  gamma-GTP: 1 IU/L
[…], time 7 day
  TERMINAL_BW: 262.1 g
  APTT: 21.5 s
  Bas: 0%
  Eos: 1.2%
  Fbg: 223.4 mg/dL
  Hb: 13.6 g/dL
  Ht: 38.2%
  Lym: 75%
  MCH: 21.5 pg
  MCHC: 35.5%
  MCV: 60.3 fL
  Mono: 2.8%
  Neu: 19.6%
  PT: 12.1 s
  Plat: 122.6 x10_4/uL
  RBC: 634.4 x10_4/ul
  Ret: 5.5%
  WBC: 107.5 x10_2/uL
  KIDNEY_L: 1.2 g
  KIDNEY_R: 1.2 g
  KIDNEY_TOTAL: 2.4 g
  LIVER: 12.2 g
  A/G: 1.5
  ALP: 987.2 IU/L
  ALT: 36.6 IU/L
  AST: 69.8 IU/L
  BUN: 14.6 mg/dL
  CRE: 0.4 mg/dL
  Ca: 10.8 mg/dL
  Cl: 103.6 meq/L
  DBIL: 0.088 mg/dL
  GLC: 183.6 mg/dL
  IP: 7.3 mg/dL
  LDH: 184 IU/L
  Na: 140.8 meq/L
  PL: 147.6 mg/dL
  RALB: 3.4 g/dL
  TBIL: 0.1 mg/dL
  TC: 79 mg/dL
  TG: 69.4 mg/dL
  TP: 5.6 g/dL
  gamma-GTP: 1 IU/L
[…], time 14 day
  TERMINAL_BW: 322.6 g
  APTT: 23.4 s
  Bas: 0%
  Eos: 0.8%
  Fbg: 228 mg/dL
  Hb: 13.9 g/dL
  Ht: 40.7%
  Lym: 76.8%
  MCH: 21.2 pg
  MCHC: 34.2%
  MCV: 62 fL
  Mono: 2.2%
  Neu: 18.6%
  PT: 12.5 s
  Plat: 117.7 x10_4/uL
  RBC: 656.2 x10_4/ul
  Ret: 4.8%
  WBC: 111.7 x10_2/uL
  KIDNEY_L: 1.3 g
  KIDNEY_R: 1.3 g
  KIDNEY_TOTAL: 2.6 g
  LIVER: 14 g
  A/G: 1.5
  ALP: 838 IU/L
  ALT: 36.6 IU/L
  AST: 64.6 IU/L
  BUN: 16.4 mg/dL
  CRE: 0.5 mg/dL
  Ca: 10.8 mg/dL
  Cl: 103.4 meq/L
  DBIL: 0.078 mg/dL
  GLC: 196.6 mg/dL
  IP: 7.4 mg/dL
  LDH: 162 IU/L
  Na: 140.6 meq/L
  PL: 134.8 mg/dL
  RALB: 3.6 g/dL
  TBIL: 0.1 mg/dL
  TC: 72.4 mg/dL
  TG: 66.8 mg/dL
  TP: 5.9 g/dL
  gamma-GTP: 1.6 IU/L
[…], time 28 day
  TERMINAL_BW: 376.8 g
  APTT: 21.5 s
  Bas: 0%
  Eos: 1.2%
  Fbg: 222.2 mg/dL
  Hb: 15.7 g/dL
  Ht: 44.1%
  Lym: 84.8%
  MCH: 19.7 pg
  MCHC: 35.6%
  MCV: 55.4 fL
  Mono: 1.4%
  Neu: 11%
  PT: 12.5 s
  Plat: 100.2 x10_4/uL
  RBC: 796.6 x10_4/ul
  Ret: 1.9%
  WBC: 114.1 x10_2/uL
  KIDNEY_L: 1.3 g
  KIDNEY_R: 1.3 g
  KIDNEY_TOTAL: 2.7 g
  LIVER: 14.6 g
  A/G: 1.3
  ALP: 722.6 IU/L
  ALT: 36.2 IU/L
  AST: 62.4 IU/L
  BUN: 17.4 mg/dL
  CRE: 0.6 mg/dL
  Ca: 10.3 mg/dL
  Cl: 102.8 meq/L
  DBIL: 0.076 mg/dL
  GLC: 220 mg/dL
  IP: 7 mg/dL
  LDH: 132.6 IU/L
  Na: 141.6 meq/L
  PL: 121.2 mg/dL
  RALB: 3.4 g/dL
  TBIL: 0.1 mg/dL
  TC: 62.4 mg/dL
  TG: 72.2 mg/dL
  TP: 6 g/dL
  gamma-GTP: 1.4 IU/L
